Experimental data reported in the supplement of paper PMC10307832.

Tests used:
Experiment in all cases: relative viability (nuclei count vs DMSO), 5 days (fraction); higher = more cells survive
[1] = compound: CC1=C(C(=O)N2C=CSC2=N1)CCN3CCC(=C(C4=CC=CC=C4)C5=CC=C(C=C5)F)CC3 + CC(=O)c1c(C)c2cnc(Nc3ccc(N4CCNCC4)cn3)nc2n(C2CCCC2)c1=O [Palbociclib] (partner 0.5 µM)
Outline: (§1)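 One day after seeding in 1536-well plates, lung cancer cell lines were dosed by pin tool. Dosing was either single-drug or a fixed anchor-drug dose plus five library-drug doses (not always all listed) in √10 steps. After 5 days, nuclei were stained in one fix-and-stain step and counted on 4× images, and relative viability is the nuclei count of treated wells over that of vehicle wells, given as the median of duplicate plates.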

[2] = compound: CC1=C(C(=O)N2C=CSC2=N1)CCN3CCC(=C(C4=CC=CC=C4)C5=CC=C(C=C5)F)CC3 + C[C@@H](Oc1cc(-c2cnn(C3CCNCC3)c2)cnc1N)c1c(Cl)ccc(F)c1Cl [Crizotinib] (partner 1 µM)
Outline: as §1

[3] = compound: CC1=C(C(=O)N2C=CSC2=N1)CCN3CCC(=C(C4=CC=CC=C4)C5=CC=C(C=C5)F)CC3 + NC(=O)Nc1cc(-c2cccc(F)c2)sc1C(=O)N[C@H]1CCCNC1 [AZD7762] (partner 0.2 µM)
Outline: as §1

[4] = compound: CC1=C(C(=O)N2C=CSC2=N1)CCN3CCC(=C(C4=CC=CC=C4)C5=CC=C(C=C5)F)CC3 + O=C(CCCCCCC(=O)Nc1ccccc1)NO [Vorinostat] (partner 1 µM)
Outline: as §1

Cell Line	relative viability ([1]; first compound 0.08 µM)	relative viability ([1]; first compound 0.253 µM)	relative viability ([1]; first compound 0.8 µM)	relative viability ([1]; first compound 2.53 µM)	relative viability ([1]; first compound 8 µM)	relative viability ([2]; first compound 0.253 µM)	relative viability ([2]; first compound 0.8 µM)	relative viability ([2]; first compound 2.53 µM)	relative viability ([2]; first compound 8 µM)	relative viability ([3]; first compound 0.08 µM)	relative viability ([3]; first compound 0.253 µM)	relative viability ([3]; first compound 0.8 µM)	relative viability ([3]; first compound 2.53 µM)	relative viability ([3]; first compound 8 µM)	relative viability ([4]; first compound 0.08 µM)	relative viability ([4]; first compound 0.253 µM)	relative viability ([4]; first compound 0.8 µM)	relative viability ([4]; first compound 2.53 µM)	relative viability ([4]; first compound 8 µM)	relative viability ([2]; first compound 0.08 µM)
HCC-366	0.392	0.394	0.458	0.337	0.277	0.539	0.587	0.448	0.616	0.302	0.317	0.25	0.23	0.211	0.344	0.405	0.332	0.403	0.256	–
HCC-827	0.483	0.496	0.491	0.486	0.455	0.924	0.911	0.98	0.946	0.16	0.214	0.236	0.224	0.209	0.831	0.655	0.797	0.953	0.688	0.898
IA-LM	–	–	–	–	–	0.713	1.09	0.944	0.502	–	–	–	–	–	0.524	0.895	1.01	0.756	0.417	–
NCI-H520	0.211	0.235	0.238	0.223	0.19	0.608	0.858	0.58	0.476	–	–	–	–	–	0.729	0.751	0.743	0.962	0.489	0.679
NCI-H522	1.08	1.09	0.809	0.977	0.933	–	–	–	–	0.927	0.874	0.789	0.721	0.747	0.69	0.86	1.03	1.08	0.736	–
NCI-H596	–	–	–	–	–	1.13	0.957	1.03	0.949	1.18	0.913	1.2	1.08	0.965	0.57	0.576	0.626	0.583	0.587	1.01
NCI-H661	0.402	0.393	0.391	0.417	0.429	1.01	1.21	1	0.801	–	–	–	–	–	0.765	0.761	0.817	0.838	0.406	0.848
NCI-H1299	–	–	–	–	–	0.943	0.976	0.965	0.69	–	–	–	–	–	–	–	–	–	–	0.971
NCI-H1395	0.623	0.656	0.551	0.616	0.61	–	–	–	–	0.384	0.457	0.391	0.419	0.383	0.714	0.786	0.525	0.691	0.646	–
NCI-H1648	0.254	0.316	0.22	0.326	0.249	–	–	–	–	0.722	0.628	0.727	0.667	0.443	0.26	0.36	0.603	0.4	0.338	–
NCI-H1650	0.395	0.345	0.313	0.383	0.348	1.14	0.957	1.01	0.872	–	–	–	–	–	0.426	0.525	0.559	0.593	0.327	0.892
